Data from patent US7491705B2, “Alpha-ketoamide derivative, and production method and use thereof” (Senju Pharmaceutical Co., Ltd., priority 2003, dated 2009).
Values after ≈ are worked out from the molar mass of the structure shown.

Key:
[1] = Solubility in 10 mM phosphate buffer (pH 7.0); format: physicochemical
Method: Solubility of the compounds of the present invention in 10 mM phosphate buffer (pH 7.0) was measured.

[2] = Partition coefficient using IAM column; format: physicochemical; conditions: IAM Fast Screening Mini-Column; Dulbecco's phosphate buffer (pH 7.4)
Method: Analysis by HPLC system was carried out under the conditions given below, and retention time of each substance was measured. • Column: IAM Fast Screening Mini-Column (Regis Technologies, Inc.) • Mobile phase: Dulbecco's phosphate buffer (pH 7.4) • Detection wavelength: 250 nm • Column temperature: room temperature • Injection amount: 5.0 to 20 μL • Flow rate: 0.5 mL/min • Sample solution: 5 mg of sample was dissolved in 100 μL of acetonitrile, and a mobile phase was added to make 1 mL of a sample solution.
The measured value was inserted into the following formula, and the partition coefficient (K′ IAM) was calculated. k′IAM=(tR−t0)/t0 t0: retention time of the peak derived from acetonitrile tR: retention time of the peak of the sample

[3] = Transportation rate into blood after oral administration; format: in vivo, Macaca fascicularis (crab-eating monkey); conditions: cynomolgus monkey, 10 mg/kg, Macaca fascicularis, plasma; for AUC(0-t): read-out: AUC 0→4 hr
Method: The compound of the present invention was administered orally to Macaca fascicularis (crab-eating monkey) at a dose of 10 mg/kg. The blood was collected with the lapse of time, and the concentration of each compound in the plasma was measured.

in vitro = conditions: human, Caco-2
Method: (§1) As a culture medium for the incubation, Dulbecco's modified Eagle's minimum essential medium (GIBCO BRL) supplemented with 10% fetal calf serum (GIBCO BRL), antibiotic-antimycotic mixture, liquid (GIBCO BRL), non-essential amino acid solution (GIBCO BRL) and 2 mmol/L L-glutamine (GIBCO BRL) was used. […] Propranolol was used as a positive control, and ^14C-mannitol was used as a negative control. LC-MS/MS was used for quantitative analysis of samples, and a liquid scintillation counter was used for quantitative analysis of ^14C-mannitol.
(§2) Papp: apparent permeation coefficient (cm/sec)
δQ/δt: permeation velocity (pmol/min)
A: area of monolayer cell=0.33 cm^2
(§3) C0: initial concentration at apical membrane side (pmol/mL)

ganglion cells of retina = experiment: Rat retinal ischemia reperfusion injury; format: in vivo; conditions: 100 mg/Kg oral, 15 minutes before ischemia and immediately after release, 7 days after reperfusion, P<0.05 vs control
Method: Male SD rats (body weight: 150-200 g, purchased from Charles River Japan, Inc.) were used. For anesthesia, a mixture of equivalent amounts of 50 mg/mL ketamine injection and 20 mg/mL xylazine injection was administered intramuscularly at 1.0 mL/Kg body weight into the femora of the rats 15 minutes before ischemia. To achieve ischemia, the optic nerve including central retinal artery was ligated using a Sugita Clip minitype (No. 98), and the blood flow was blocked for 55 minutes. Such ligation was released 55 minutes after the above ligation, and blood flow was made to run again into retina (hereinafter, referred to as ischemia reperfusion). For normal group, central retinal artery was only exposed and ischemia was not set up. After 7 days from reperfusion in ischemia, a tissue specimen was prepared. For preparation of the tissue specimen, an excess amount of pentobarbital solution was intraperitoneally administered to sacrifice the animal, and eyeball was enucleated. The enucleated eyeball was dipped and fixed for 24 hours in a fixing solution of 2% paraformaldehyde and 2.5% glutaraldehyde (0.1 M phosphate buffer, pH 7.4). […] The stained sections were observed under an optical microscope, and ganglion cells of retina per 0.25 mm width of retina section at 1-2 mm from the center of the optic disc were counted. […]

Caco-2 cells = experiment: Permeability test with Caco-2 cells; conditions: apical pH 6.5 → basolateral pH 7.4; 10 μm sample; 37° C.
Method: as §1, §2
δQ/δt: permeation velocity (pmol/min)
A: area of monolayer cell=0.33 cm^2
as §3

Structure (SMILES)	Solubility [1]	IAM (Log k′IAM) [2]	Cmax [3]	AUC(0-t) [3]	Papp A→B at 10 μm (in vitro)	Ganglion cell count after retinal ischemia reperfusion (ganglion cells of retina)	Caco-2 Papp(a−b) (Caco-2 cells)
COCCOC(=O)N[C@@H](CC(C)C)C(=O)N[C@@H](Cc1ccccc1)C(=O)C(=O)NC1CC1 [Compound 4, ((1S)-1-((((1S)-1-Benzyl-2,3-dioxo-3-(cyclopropylamino)propyl)amino)carbonyl)-3-methylbutyl)carbamic acid 2-methoxyethyl ester]	1300 µg/mL (≈ 2900 µM)	1.20	1200 nM	1.9 µM·h	2.7 ×10⁻⁶ cm/s		
COCCOCCOC(=O)N[C@@H](CC(C)C)C(=O)N[C@@H](Cc1ccccc1)C(=O)C(=O)NC1CC1 [Compound 17, ((1S)-1-((((1S)-1-Benzyl-2,3-dioxo-3-(cyclopropylamino)propyl)amino)carbonyl)-3-methylbutyl)carbamic acid 5-methoxy-3-oxapentyl ester]	650 µg/mL (≈ 1320 µM)	1.27	1100 nM	2.4 µM·h		significantly suppressed the decrease	
OCC(O)C(O)C(O)C(O)[14CH2]O (centres unmarked) [^14C-Mannitol, ^14C-mannitol]							0.6 (cms^−1) × 10^−6
